In ChEMBL document CHEMBL5385865, “Discovery and optimization of 2-(trifluoromethyl)benzimidazole derivatives as novel ferroptosis inducers in vitro and in vivo” (Eur J Med Chem, 2023):
Activity calls are given as the source filed them. The rule behind the calls is not given here.

Experiments:
HT-1080 [1] = test: Lethality in human HT-1080 cells assessed as cell survival at 10 uM incubated for 24 hrs by MTT assay relative to control; type: functional; conditions: read-out: Activity
HT-1080 [2] = test: Lethality in human HT-1080 cells assessed as inhibition of cell viability incubated for 24 hrs by MTT assay; type: functional, cell-based; conditions: HT-1080, 24 h
[3] = Metabolic stability in […] rat microsomes assessed as half life at 1 uM in presence of NADPH by LC-MS analysis; type: ADME, Liver, Microsome
[4] = Metabolic stability in human liver microsomes assessed as intrinsic clearance measured per mg protein at 1 uM in presence of NADPH by LC-MS analysis; type: ADME, Microsome; conditions: read-out: CLH
[5] = Metabolic stability in rat liver microsomes assessed as intrinsic clearance measured per mg protein at 1 uM in presence of NADPH by LC-MS analysis; type: ADME, Microsome; conditions: read-out: CLH
[6] = Metabolic stability in human liver microsomes assessed as half life at 1 uM in presence of NADPH by LC-MS analysis; type: ADME, Microsome
[7] = biological target: T1, Cystine/glutamate transporter (Homo sapiens) (UniProt Q9UPY5); test: Inhibition of Xc- in human HT-1080 cells assessed as decrease in glutamate release at 5 uM incubated for 3 hrs by Amplex red assay; type: cell-based
T1 sequence (whole entry): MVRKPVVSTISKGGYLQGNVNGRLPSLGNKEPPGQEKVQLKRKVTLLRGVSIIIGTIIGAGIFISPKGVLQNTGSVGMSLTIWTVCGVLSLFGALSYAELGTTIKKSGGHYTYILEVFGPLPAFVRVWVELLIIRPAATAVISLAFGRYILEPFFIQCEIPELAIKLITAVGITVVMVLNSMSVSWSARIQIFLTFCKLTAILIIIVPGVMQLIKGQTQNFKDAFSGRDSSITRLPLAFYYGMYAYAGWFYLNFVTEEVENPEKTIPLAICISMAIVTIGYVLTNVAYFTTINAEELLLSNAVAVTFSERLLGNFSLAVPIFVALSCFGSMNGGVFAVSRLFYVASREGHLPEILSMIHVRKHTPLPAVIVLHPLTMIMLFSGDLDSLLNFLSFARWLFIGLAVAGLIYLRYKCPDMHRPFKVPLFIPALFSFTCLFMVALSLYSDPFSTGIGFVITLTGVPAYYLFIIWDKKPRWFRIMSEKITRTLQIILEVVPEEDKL

[8] = biological target: T2, Phospholipid hydroperoxide glutathione peroxidase GPX4 (Homo sapiens) (UniProt P36969); test: Inhibition of GPX4 in human HT-1080 cells at 5 uM incubated for 2 hrs; type: cell-based
T2 sequence (whole entry): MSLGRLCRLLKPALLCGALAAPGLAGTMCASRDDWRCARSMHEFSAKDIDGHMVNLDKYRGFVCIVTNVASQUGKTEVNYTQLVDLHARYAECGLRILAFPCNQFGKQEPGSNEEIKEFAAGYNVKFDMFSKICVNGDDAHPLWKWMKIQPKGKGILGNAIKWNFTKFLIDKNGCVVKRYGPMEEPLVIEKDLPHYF

Row | SMILES | viability at 10 µM (HT-1080 [1]) [%] | IC50 (HT-1080 [2]) [µM] | also measured
1 | FC(F)(F)c1nc2ccccc2n1CC1CCN(c2ccc(C3CCCCC3)cc2)CC1 | < 50 |  | 
2 | CN(C)C(=O)c1ccc(N2CCC(Cn3cnc4ccccc43)CC2)cc1Cl | < 50 |  | 
3 | CC(C)(C)c1ccc(N2CCC(Cn3c(C(F)(F)F)nc4ccccc43)CC2)cc1 | < 50 |  | 
4 | CCOc1ccccc1Cc1nc2ccccc2n1CC1CCN(c2ccc(S(=O)(=O)N(C)C)cc2)CC1 | < 50 |  | 
5 | CN(C)C(=O)c1ccc(N2CCC(Cn3c(C(F)(F)F)nc4ccccc43)CC2)cc1F |  | 2.11 | 
6 | CS(=O)(=O)c1cc(N2CCC(Cn3c(C(F)(F)F)nc4ccccc43)CC2)ccc1CO |  | 7.47 | 
7 | COC(=O)c1ccc(N2CCC(Cn3c(C(F)(F)F)nc4ccccc43)CC2)cc1S(C)(=O)=O |  | 6.64 | 
8 | CN(C)S(=O)(=O)c1ccc(N2CCC(Cn3c(-c4ccccc4)nc4ccccc43)CC2)cc1 | < 50 |  | 
9 | CN(C)c1ccc(CC(=O)N2CCC(Cn3c(C(F)(F)F)nc4ccccc43)CC2)cc1 |  | 3.48 | 
10 | CCOc1ccccc1-c1nc2ccccc2n1CC1CCN(c2ccc(S(=O)(=O)N(C)C)cc2)CC1 | < 50 |  | 
11 | CN(C)C(=O)c1ccc(N2CCC(Cn3c(C(F)(F)F)nc4ccccc43)CC2)cc1 |  | 3.06 | 
12 | O=S(=O)(c1ccc(N2CCC(Cn3c(C(F)(F)F)nc4ccccc43)CC2)cc1)N1CCOCC1 |  | 1.89 | half-life at 1 µM [3]: 7.4 min; microsomal CLint at 1 µM [4]: 118 µL/min/mg; microsomal CLint at 1 µM [5]: 187 µL/min/mg; half-life at 1 µM [6]: 11.7 min
13 | CN(C)c1ccc(C(=O)N2CCC(Cn3c(C(F)(F)F)nc4ccccc43)CC2)cc1 |  | 8.17 | 
14 | CCOc1ccccc1-n1c(C(C)N2CCN(C(=O)COc3ccc(Cl)cc3)CC2)nc2ccccc2c1=O (stereo not given) [ERASTIN] |  | 1.52 | half-life at 1 µM [3]: 3.5 min; inhibition [7]: Active; microsomal CLint at 1 µM [4]: 349 µL/min/mg; microsomal CLint at 1 µM [5]: 400 µL/min/mg; half-life at 1 µM [6]: 4 min
15 | O=C(c1ccc(N2CCC(Cn3c(C(F)(F)F)nc4ccccc43)CC2)cc1)N1CCCC1 |  | 1.49 | half-life at 1 µM [3]: 8.6 min; microsomal CLint at 1 µM [4]: 105 µL/min/mg; microsomal CLint at 1 µM [5]: 164 µL/min/mg; half-life at 1 µM [6]: 13.2 min
16 | CN(C)C(=O)c1ccc(N2CCC(Cn3ccc4ccccc43)CC2)cc1Cl | < 50 |  | 

Row | SMILES | viability at 10 µM (HT-1080 [1]) [%] | IC50 (HT-1080 [2]) [µM] | also measured
17 | COc1ccc(N2CCC(Cn3c(C(F)(F)F)nc4ccccc43)CC2)cc1Cl | < 50 |  | 
18 | FC(F)(F)c1ccc(N2CCC(Cn3c(C(F)(F)F)nc4ccccc43)CC2)cc1Cl | < 50 |  | 
19 | FC(F)(F)c1nc2ccccc2n1CC1CCN(c2ccc(N3CCOCC3)c(Cl)c2)CC1 | < 50 |  | 
20 | CN(C)C(=O)c1cccc(N2CCC(Cn3c(C(F)(F)F)nc4ccccc43)CC2)c1 | < 50 |  | 
21 | CC(C)Oc1ccc(N2CCC(Cn3c(C(F)(F)F)nc4ccccc43)CC2)cc1Cl | < 50 |  | 
22 | CC(C)c1ccc(N2CCC(Cn3c(C(F)(F)F)nc4ccccc43)CC2)cc1 | < 50 |  | 
23 | CCOc1cccc(-c2nc3ccccc3n2CC2CCN(c3ccc(S(=O)(=O)N(C)C)cc3)CC2)c1 | < 50 |  | 
24 | CCN(CC)C(=O)c1ccc(N2CCC(Cn3c(C(F)(F)F)nc4ccccc43)CC2)cc1 |  | 2.21 | 
25 | COC(=O)c1ccc(N2CCC(Cn3c(C(F)(F)F)nc4ccccc43)CC2)cc1Cl | < 50 |  | 
26 | CN(C)C(=O)c1ccc(N2CCC(Cn3cnc4c(C(F)(F)F)cccc43)CC2)cc1Cl | < 50 |  | 
27 | CCN(CC)C(=O)c1ccc(N2CCC(Cn3c(C(F)(F)F)nc4ccccc43)CC2)cn1 |  | 3.46 | 
28 | CC(=O)Nc1ccc(N2CCC(Cn3c(C(F)(F)F)nc4ccccc43)CC2)cc1Cl | < 50 |  | 
29 | COC(=O)c1ccc([C@H]2c3[nH]c4ccccc4c3C[C@H](C(=O)OC)N2C(=O)CCl)cc1 |  |  | inhibition [8]: Active
30 | CN(C)C(=O)c1ccc(N2CCC(Cn3c(C(F)(F)F)nc4ccccc43)CC2)cc1Cl |  | 2.53 | 
31 | O=C(COc1ccc(Cl)cc1)N1CCC(Cn2c(C(F)(F)F)nc3ccccc32)CC1 |  | 3.16 | 
32 | CN1C(=O)c2ccc(N3CCC(Cn4c(C(F)(F)F)nc5ccccc54)CC3)cc2C1=O | < 50 |  | 
